Legend:
DDB1ΔB-CRBN = DDB1ΔB-CRBN (Homo sapiens (Human), UniProt Q96SW2); assay: Atto565-Lenalidomide displacement assay (fluorescence polarization, CRBN binding); settings: for IC50: 10 nM Atto565-Lenalidomide, 100 nM DDB1ΔB-CRBN, n=2; for Ki: calculated from IC50 with probe Kd of 40 nM, competitive model
Experimental: Various inventive compounds were analyzed for cereblon binding. […] Compound titrations were incubated for 60 min at room temperature. The change in fluorescence polarization was monitored using a PHERAstar® FS microplate reader (BMG Labtech) for 1 h in 120s cycles.

CRBN = CRBN (Homo sapiens (Human), UniProt Q96SW2); assay: Cellular CRBN dBET6 displacement assay (BRD4BD2-GFP/mCherry reporter cells); assay type: cell-based; settings: Flip-In 293 cells stably expressing BRD4BD2-GFP, 100 nM dBET6, 5 hours; read-out: Cellular CRBN-BRD4 dBET6 displacement EC50
Chain of CRBN (Q96SW2 whole entry): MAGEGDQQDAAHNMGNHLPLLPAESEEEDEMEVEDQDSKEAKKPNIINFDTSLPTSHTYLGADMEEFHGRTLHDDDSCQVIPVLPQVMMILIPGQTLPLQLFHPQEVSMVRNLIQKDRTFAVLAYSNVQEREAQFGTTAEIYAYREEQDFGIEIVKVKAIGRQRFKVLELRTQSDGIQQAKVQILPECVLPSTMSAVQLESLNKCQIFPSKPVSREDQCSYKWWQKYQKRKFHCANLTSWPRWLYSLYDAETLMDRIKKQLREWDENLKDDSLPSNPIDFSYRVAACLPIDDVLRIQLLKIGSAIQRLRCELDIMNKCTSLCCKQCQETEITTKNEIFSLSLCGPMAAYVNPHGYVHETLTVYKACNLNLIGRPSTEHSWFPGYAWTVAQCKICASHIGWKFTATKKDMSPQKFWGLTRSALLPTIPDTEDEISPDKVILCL
Experimental: BRD4BD2 were subcloned into mammalian pcDNA5/FRT Vector (Ampicillin and Hygromycin B resistant) modified to contain MCS-eGFP-P2A-mCherry. […] Following a 2-3 passage cycle, FACS (FACSAria™ II, BD) was used to enrich for cells expressing eGFP and mCherry.
Signal from minimal 3000 events per well was acquired and the eGFP and mCherry florescence monitored. Data was analyzed using FlowJo® (FlowJo®, LCC). […] The eGFP protein abundance relative to mCherry was then quantified as a ten-fold amplified ratio for each individual cell using the formula: 10×eGFP/mCherry. The median of the ratio was then calculated per set, normalized to the median of the DMSO ratio.
This assay provided a readout of cellular CRBN binding impacted by the permeability of the molecule tested.

Chain of DDB1ΔB-CRBN (Q96SW2 whole entry, stated change not applied): as the sequence (Q96SW2 whole entry) above

Row | IC50 (DDB1ΔB-CRBN) [µM] | Ki (DDB1ΔB-CRBN) [µM] | EC50 (CRBN) [µM] | Compound
1 | 47.5 | 13.6 | 47.9 | O=C1CCC(N2Cc3c(NC(=O)CNc4ccnc(Nc5ccc6c(c5)CCC6)n4)cccc3C2=O)C(=O)N1 (centres unmarked) [Compound 2, 2-((2-((2,3-dihydro-1H-inden-5-yl)amino)pyrimidin-4-yl)amino)-N-(2-(2,6-dioxopiperidin-3-yl)-1-oxoisoindolin-4-yl)acetamide]
2 | 22.1 | 6.3 |  | COc1cccc(-c2nccc(NCC(=O)Nc3cccc4c3CN(C3CCC(=O)NC3=O)C4=O)n2)c1 (centres unmarked) [Compound 9, N-(2-(2,6-dioxopiperidin-3-yl)-1-oxoisoindolin-4-yl)-2-((2-(3-methoxyphenyl)pyrimidin-4-yl)amino)acetamide]
3 | 14.7 | 4.2 |  | O=C1CCC(N2Cc3c(NC(=O)CNc4ccnc(-c5ccc(F)cc5)n4)cccc3C2=O)C(=O)N1 (centres unmarked) [Compound 11, N-(2-(2,6-dioxopiperidin-3-yl)-1-oxoisoindolin-4-yl)-2-((2-(4-fluorophenyl)pyrimidin-4-yl)amino)acetamide]
4 | 22.9 | 6.5 |  | O=C1CCC(N2Cc3c(NC(=O)CNc4ccnc(NCCCN5CCCC5=O)n4)cccc3C2=O)C(=O)N1 (centres unmarked) [Compound 6, N-(2-(2,6-dioxopiperidin-3-yl)-1-oxoisoindolin-4-yl)-2-((2-((3-(2-oxopyrrolidin-1-yl)propyl)amino)pyrimidin-4-yl)amino)acetamide]
5 | 18.9 | 5.4 |  | COc1ccc(OC)c(-c2nccc(NCC(=O)Nc3cccc4c3CN(C3CCC(=O)NC3=O)C4=O)n2)c1 (centres unmarked) [Compound 10, 2-((2-(2,5-dimethoxyphenyl)pyrimidin-4-yl)amino)-N-(2-(2,6-dioxopiperidin-3-yl)-1-oxoisoindolin-4-yl)acetamide]
